Measured values as given in ChEMBL document CHEMBL1148294, “Synthesis, in vitro evaluation, and antileishmanial activity of water-soluble prodrugs of buparvaquone” (J Med Chem, 2004).
Values after ≈ are worked out from the molar mass of the structure shown.

Columns and labels:
[1] = test system: Leishmania aethiopica; assay: Effective dose was determined for extracellular promastigotes of Leishmania aethiopica Khartoum at 72 h; assay type: functional; details: read-out: ED50 (the source's name)
[2] = test system: Leishmania major; assay: Effective dose was determined for extracellular promastigotes of Leishmania major JISH118 at 72 h; assay type: functional; details: read-out: ED50 (the source's name)
[3] = test system: Leishmania panamensis; assay: Effective dose was determined for extracellular promastigotes of Leishmania panamensis BOYNTON at 72 h; assay type: functional; details: read-out: ED50 (the source's name)
[4] = test system: Leishmania mexicana; assay: Effective dose was determined for intracellular amastigotes of Leishmania mexicana LV4 at 72 hr in infected macrophages at 34 degree C (experiment 2); details: read-out: ED50 (the source's name)
[5] = test system: Leishmania aethiopica; assay: Effective dose was determined for intracellular amastigotes of Leishmania aethiopica Khartoum at 72 hr in infected macrophages at 34C (experiment 1); assay type: functional; details: read-out: ED50 (the source's name)
[6] = test system: Leishmania mexicana; assay: Effective dose was determined for extracellular promastigotes of Leishmania mexicana BEL21 at 72 h; assay type: functional; details: read-out: ED50 (the source's name)
[7] = Ionization constant (pKa) was determined; assay type: physicochemical
[8] = Aqueous Solubility at pH 7.4; assay type: physicochemical
[9] = test system: alkaline phosphatase; assay: Half-life for rate of hydrolysis was determined in alkaline phosphatase solution (pH 7.4); assay type: ADME
[10] = Distribution Coefficient at pH 3; assay type: physicochemical; details: octanol/water
[11] = test system: Leishmania mexicana; assay: Effective dose was determined for intracellular amastigotes of Leishmania mexicana LV4 at 72 hr in infected macrophages at 34C (experiment 1); assay type: functional; details: read-out: ED50 (the source's name)
[12] = Distribution Coefficient at pH 7.4; assay type: physicochemical; details: octanol/water
[13] = test system: Leishmania donovani; assay: Effective dose was determined for intracellular amastigotes of Leishmania donovani L82 at 72 hr in infected macrophages at 37 degree C (experiment 2); assay type: functional; details: read-out: ED50 (the source's name)
[14] = Half-life for rate of hydrolysis was determined at pH 5; assay type: ADME; details: buffer
[15] = Half-life for rate of hydrolysis was determined at pH 3; assay type: ADME; details: buffer
[16] = Half-life for rate of hydrolysis was determined in human skin homogenate (pH 7.4); assay type: ADME, tissue-based, Zone of skin
[17] = test system: Leishmania donovani; assay: Effective dose was determined for intracellular amastigotes of Leishmania donovani L82 at 72 hr in infected macrophages at 37C (experiment 1); details: read-out: ED50 (the source's name)
[18] = Aqueous Solubility at pH 5; assay type: physicochemical
[19] = test system: Leishmania mexicana; assay: Effective dose was determined for extracellular promastigotes of Leishmania mexicana LV4 at 72 h; assay type: functional; details: read-out: ED50 (the source's name)
[20] = test system: Leishmania major; assay: Effective dose was determined for intracellular amastigotes of Leishmania major JISH118 at 72 hr in infected macrophages at 34C (experiment 1); assay type: functional; details: read-out: ED50 (the source's name)
[21] = test system: Leishmania panamensis; assay: Effective dose was determined for intracellular amastigotes of Leishmania panamensis BOYNTON at 72 hr in infected macrophages at 34C (experiment 1); assay type: functional; details: read-out: ED50 (the source's name)
[22] = Aqueous Solubility at pH 3; assay type: physicochemical
[23] = Half-life for rate of hydrolysis was determined at pH 7.4; assay type: ADME; details: buffer
[24] = test system: Leishmania amazonensis; assay: Effective dose was determined for intracellular amastigotes of Leishmania amazonensis LV81 at 72 hr in infected macrophages at 34C (experiment 1); assay type: functional; details: read-out: ED50 (the source's name)
[25] = test system: Leishmania major; assay: Effective dose was determined for intracellular amastigotes of Leishmania major JISH118 at 72 hr in infected macrophages at 34 degree C (experiment 2); details: read-out: ED50 (the source's name)
[26] = test system: Leishmania aethiopica; assay: Effective dose was determined for intracellular amastigotes of Leishmania aethiopica Khartoum at 72 hr in infected macrophages at 34 degree C (experiment 2); details: read-out: ED50 (the source's name)
[27] = Distribution Coefficient at pH 5; assay type: physicochemical; details: octanol/water
[28] = test system: Leishmania panamensis; assay: Effective dose was determined for intracellular amastigotes of Leishmania panamensis BOYNTON at 72 h in infected macrophages at 34 degree C (experiment 2); details: read-out: ED50 (the source's name)
[29] = test system: Leishmania donovani; assay: Effective dose was determined for extracellular promastigotes of Leishmania donovani L82 at 72 h; assay type: functional; details: read-out: ED50 (the source's name)
[30] = test system: Leishmania amazonensis; assay: Effective dose was determined for extracellular promastigotes of Leishmania amazonensis LV81 at 72 h; assay type: functional; details: read-out: ED50 (the source's name)

| Structure (SMILES) | EC50 [1] [nM] | EC50 [2] [nM] | EC50 [3] [nM] | EC50 [4] [nM] | EC50 [5] [nM] | EC50 [6] [nM] | pKa [7] | solubility [8] [µg/mL] | logD [10] | EC50 [11] [nM] | EC50 [13] [nM] | EC50 [17] [nM] | solubility [18] [µg/mL] | EC50 [19] [nM] | EC50 [20] [nM] | EC50 [21] [nM] | solubility [22] [µg/mL] | EC50 [24] [nM] | EC50 [25] [nM] | EC50 [26] [nM] | further results |
| --- | --- | --- | --- | --- | --- | --- | --- | --- | --- | --- | --- | --- | --- | --- | --- | --- | --- | --- | --- | --- | --- |
| CC(C)(C)C1CCC(CC2=C(OCOP(=O)(O)O)C(=O)c3ccccc3C2=O)CC1 (stereo not drawn) | 57 | 12 | 120 | 2510 | 1660 | 5 | 2.28 | > 3500 | 2.96 | 2580 | 1220 | 1250 | > 3500 | 10 | 810 | < 1120 | > 3500 | 8810 | 1890 | 3990 | half-life [9]: 3.8 min; logD [12]: 1.16; half-life [14]: 8 h; half-life [15]: 97 h; half-life [16]: 0.175 h; half-life [23]: 0.5 h; logD [27]: 1.83; EC50 [28]: 1190 nM; EC50 [29]: 3 nM; EC50 [30]: 7 nM |
| CC(C)(C)C1CCC(CC2=C(OP(=O)(O)O)C(=O)c3ccccc3C2=O)CC1 (stereo not drawn) | 122 | 64 | 124 | 4030 | 2330 | 24 | 2.68 | > 3500 | 1.87 | 7030 | 4310 | 4120 | > 3500 | 39 | 1370 | 555 | > 3500 | 15700 | 6270 | 7350 | half-life [9]: 1.2 min; logD ([12]; read-out: logD): 0.47; half-life [14]: 50 h; half-life [15]: 72 h; half-life [16]: 8.7 h; half-life [23]: 17 h; logD [27]: 1.27; EC50 [28]: 2060 nM; EC50 [29]: 9 nM; EC50 [30]: 24 nM |
| CC(C)(C)[C@H]1CC[C@H](CC2=C(O)C(=O)c3ccccc3C2=O)CC1 [BUPARVAQUONE] | 13 | 1 | 42 | 1250 | 633 | 2 | 5.7 | 0.03 (≈ 9.19e-05 mM) | 7.02 | 1440 | 430 | 480 | < 0.03 | 4 | 434 | 370 | < 0.03 | 5500 | 1800 | 3640 | EC50 [28]: 923 nM; EC50 [29]: 6 nM; EC50 [30]: 4 nM |
